# Source: patent US20110301122A1, “HETEROAROMATIC COMPOUNDS FOR USE AS HIF INHIBITORS” (BAYER SCHERING PHARMA AKTIENGESELLSCHAFT, priority 2008, published 2011)
# Test system: luciferase reporter under the control of an HIF-responsive sequence in HCT 116 cells
# Experiment: HIF-luciferase assay
# Assay type: cell-based
# Details: Homo sapiens; HCT 116 cells stably transfected with HIF-responsive luciferase reporter; hypoxia chamber (1% O2), 24 h; luminescence (Bright Glo)
# Procedure: HCT 116 cells were transfected in a stable manner with a plasmid which contained a luciferase reporter under the control of an HIF-responsive sequence. These cells were sown in microtitre plates [20,000 cells/cavity in RPMI 1640 medium with 10% foetal calf serum (FCS) and 100 μg/ml of hygromycin]. Incubation was carried out overnight under standard conditions (5% CO2, 21% O2, 37° C., moistened). The following morning the cells were incubated with various concentrations of the test substances (0-10 μmol/l) in a hypoxia chamber (1% O2). After 24 h, Bright Glo reagent (Promega, Wisconsin, USA) was added in accordance with the manufacturer'/s instructions, and after 5 min the luminescence was measured. Cells which were incubated under normoxia served as background controls.
row,Compound,IC50 [nM]
1,"CN=S(=O)(c1ccc(-c2noc(-c3cc(C)n(Cc4ccc(NC)nc4)n3)n2)cc1)C(F)(F)F (racemic) [Example 187, N-Methyl-5-{[5-methyl-3-(3-{4-[N-methyl-S-(trifluoromethyl)sulphonimidoyl]phenyl}-1,2,4-oxa-diazol-5-yl)-1H-pyrazol-1-yl]methyl}pyridin-2-amine]",0.6
2,"CNc1ccc(Cn2nc(-c3nc(-c4ccc(S(=N)(=O)C(F)(F)F)cc4)no3)cc2C)cn1 (racemic) [Example 188, N-Methyl-5-{[5-methyl-3-(3-{4-[S-(trifluoromethyl)sulphonimidoyl]phenyl}-1,2,4-oxadiazol-5-yl)-1H-pyrazol-1-yl]methyl}pyridin-2-amine]",1
3,"CNc1ccc(Cn2nc(-c3nc(-c4ccc(OC(F)(F)F)cc4)no3)cc2C)cn1 [Example 24, N-Methyl-5-[(5-methyl-3-{3-[4-(trifluoromethoxy)phenyl]-1,2,4-oxadiazol-5-yl}-1H-pyrazol-1-yl)methyl]pyridin-2-amine]",1
4,Cc1cc(-c2nc(-c3ccc(OC(F)(F)F)cc3)no2)nn1Cc1ccc(NCCCO)nc1 [Example 25],8
5,Cc1cc(-c2nc(-c3ccc(OC(F)(F)F)cc3)no2)nn1Cc1ccc(NCCO)nc1 [Example 29],10
6,Cc1cc(-c2nc(-c3ccc(OC(F)(F)F)cc3)no2)nn1Cc1ccnc(N(CCO)CCO)c1 [Example 33],30
7,"Cc1cc(-c2nc(-c3ccc(C(C)(C)C)cc3)no2)cn1Cc1ccc(Cl)nc1 [Example 72, 5-({4-[3-(4-tert-Butylphenyl)-1,2,4-oxadiazol-5-yl]-2-methyl-1H-pyrrol-1-yl}methyl)-2-chloro-pyridine]",10
8,Cc1ccc(Cn2cc(-c3nc(-c4ccc(S(=O)(=O)C(F)(F)F)cc4)no3)cc2C)cc1 [Example 79],4
9,Cc1ccc(Cn2cc(-c3nc(-c4ccc(C5(F)COC5)cc4)no3)cc2C)cc1 [Example 81],10
10,Cc1ccc(Cc2cc(-c3nc(-c4ccc(C(C)(C)C)cc4)no3)nn2C)cc1 [Example 94],20
11,"Cc1cc(-c2nc(-c3ccc(OC(F)(F)F)cc3)no2)cn1Cc1ccc(NCCO)nc1 [Example 100, 2-({5-[(2-Methyl-4-{3-[4-(trifluoromethoxy)phenyl]-1,2,4-oxadiazol-5-yl}-1H-pyrrol-1-yl)-methyl]pyridin-2-yl}amino)ethanol]",9
12,CNc1ccc(Cn2nc(-c3nc(-c4ccc(C(C)(C)C(F)(F)F)cc4)no3)cc2C)cn1 [Example 121],0.4
13,CNc1ccc(Cn2nc(-c3nc(-c4ccc(C5(F)CCC5)cc4)no3)cc2C)cn1 [Example 133],1.5
14,CNc1ccc(Cn2nc(-c3nc(-c4ccc(C5(OC)CCC5)cc4)no3)cc2C)cn1 [Example 134],2
15,"Cc1cc(-c2nc(-c3ccc(OC(F)(F)F)cc3)no2)nn1Cc1ccc(N)nc1 [Example 135, 5-[(5-Methyl-3-{3-[4-(trifluoromethoxy)phenyl]-1,2,4-oxadiazol-5-yl}-1H-pyrazol-1-yl)methyl]-pyridin-2-amine]",4
16,"CNc1ccc(Cn2nc(-c3nc(-c4ccc(C5CCOCC5)cc4)no3)cc2C)cn1 [Example 166, N-Methyl-5-[(5-methyl-3-{3-[4-(tetrahydro-2H-pyran-4-yl)phenyl]-1,2,4-oxadiazol-5-yl}-1H-pyrazol-1-yl)methyl]pyridin-2-amine]",2
17,"CNc1ccc(Cn2nc(-c3nc(-c4ccc(C(C)(C)C)cc4)no3)cc2C)cn1 [Example 170, 5-({3-[3-(4-tert-Butylphenyl)-1,2,4-oxadiazol-5-yl]-5-methyl-1H-pyrazol-1-yl}methyl)-N-methyl-pyridin-2-amine]",0.3
18,"CNc1ccc(Cn2nc(-c3nc(-c4ccc(C5(COC)CCC5)cc4)no3)cc2C)cn1 [Example 171, 5-{[3-(3-{4-[1-(Methoxymethyl)cyclobutyl]phenyl}-1,2,4-oxadiazol-5-yl)-5-methyl-1H-pyrazol-1-yl]methyl}-N-methylpyridin-2-amine]",0.4
19,"CNc1ccc(Cn2nc(-c3nc(-c4ccc([Si](C)(C)C)cc4)no3)cc2C)cn1 [Example 178, N-Methyl-5-[(5-methyl-3-{3-[4-(trimethylsilyl)phenyl]-1,2,4-oxadiazol-5-yl}-1H-pyrazol-1-yl)-methyl]pyridin-2-amine]",0.6
20,"CCNc1ccc(Cn2nc(-c3nc(-c4ccc([Si](C)(C)C)cc4)no3)cc2C)cn1 [Example 180, N-Ethyl-5-[(5-methyl-3-{3-[4-(trimethylsilyl)phenyl]-1,2,4-oxadiazol-5-yl}-1H-pyrazol-1-yl)-methyl]pyridin-2-amine]",1
21,"CNc1ccc(Cn2nc(-c3nc(-c4ccc(OC(F)(F)F)c(Cl)c4)no3)cc2C)cn1 [Example 181, 5-[(3-{3-[3-Chloro-4-(trifluoromethoxy)phenyl]-1,2,4-oxadiazol-5-yl}-5-methyl-1H-pyrazol-1-yl)-methyl]-N-methylpyridin-2-amine]",2
22,"CNc1ccc(Cn2nc(-c3nc(-c4ccc(OC(F)(F)F)c(F)c4)no3)cc2C)cn1 [Example 182, 5-[(3-{3-[3-Fluoro-4-(trifluoromethoxy)phenyl]-1,2,4-oxadiazol-5-yl}-5-methyl-1H-pyrazol-1-yl)-methyl]-N-methylpyridin-2-amine]",2
23,"CNc1ccc(Cn2nc(-c3nc(-c4ccc(C5(C(F)(F)F)CC5)cc4)no3)cc2C)cn1 [Example 183, N-Methyl-5-{[5-methyl-3-(3-{4-[1-(trifluoromethyl)cyclopropyl]phenyl}-1,2,4-oxadiazol-5-yl)-1H-pyrazol-1-yl]methyl}pyridin-2-amine]",0.6
24,"CNc1ccc(Cn2nc(-c3nc(-c4ccc(CN(C(C)C)C(C)C)cc4)no3)cc2C)cn1 [Example 184, 5-{[3-(3-{4-[(Diisopropylamino)methyl]phenyl}-1,2,4-oxadiazol-5-yl)-5-methyl-1H-pyrazol-1-yl]-methyl}-N-methylpyridin-2-amine]",2
25,"CNc1ccc(Cn2cc(-c3nc(-c4ccc(C(C)(C)C(F)(F)F)cc4)no3)cc2C)cn1 [Example 196, N-Methyl-5-[(2-methyl-4-{3-[4-(1,1,1-trifluoro-2-methylpropan-2-yl)phenyl]-1,2,4-oxadiazol-5-yl}-1H-pyrrol-1-yl)methyl]pyridin-2-amine]",0.5
